Like-named read-outs stand apart in the source and are kept apart here.
Legend:
HDAC7 = target: T1, HDAC7 (Homo sapiens, UniProt Q8WUI4); assay: HDAC biochemical activity measurement (fluorescent substrate deacetylation);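 also: fluorogenic deacetylation assay using acetyl-lysine substrate at 20 µM, enzyme and compound incubated 30 min at 37 °C, then developer added, fluorescence read at 360/460 nm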; details: HDAC7; 37° C. 30 minutes
T1 sequence (Q8WUI4 1-952): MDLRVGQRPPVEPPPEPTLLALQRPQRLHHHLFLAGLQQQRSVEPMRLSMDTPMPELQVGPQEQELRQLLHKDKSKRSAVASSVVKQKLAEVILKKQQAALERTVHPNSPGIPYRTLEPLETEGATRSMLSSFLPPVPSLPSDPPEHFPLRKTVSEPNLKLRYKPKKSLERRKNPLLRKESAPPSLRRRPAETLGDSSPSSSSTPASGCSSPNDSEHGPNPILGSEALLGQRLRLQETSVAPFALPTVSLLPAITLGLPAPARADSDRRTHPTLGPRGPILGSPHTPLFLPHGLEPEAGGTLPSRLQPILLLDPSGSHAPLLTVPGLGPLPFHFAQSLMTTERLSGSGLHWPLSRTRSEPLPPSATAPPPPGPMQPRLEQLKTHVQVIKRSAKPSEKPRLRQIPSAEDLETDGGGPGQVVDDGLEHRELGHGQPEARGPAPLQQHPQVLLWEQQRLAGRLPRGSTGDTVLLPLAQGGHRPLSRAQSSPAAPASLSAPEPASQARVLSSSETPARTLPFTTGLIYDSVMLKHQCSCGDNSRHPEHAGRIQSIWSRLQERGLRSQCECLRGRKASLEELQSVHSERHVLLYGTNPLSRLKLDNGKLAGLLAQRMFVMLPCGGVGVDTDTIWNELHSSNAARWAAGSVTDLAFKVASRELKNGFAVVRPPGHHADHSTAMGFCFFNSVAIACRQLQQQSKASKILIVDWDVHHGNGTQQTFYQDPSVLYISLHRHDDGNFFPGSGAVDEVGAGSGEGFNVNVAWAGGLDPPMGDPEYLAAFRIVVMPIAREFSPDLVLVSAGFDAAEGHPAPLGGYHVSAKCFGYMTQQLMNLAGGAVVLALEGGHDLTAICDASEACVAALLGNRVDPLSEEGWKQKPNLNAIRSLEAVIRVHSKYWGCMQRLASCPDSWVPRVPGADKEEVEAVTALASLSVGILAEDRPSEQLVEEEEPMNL

HDAC1 = HDAC1 (Homo sapiens, UniProt Q13547); assay: as above
HDAC2 = HDAC2 (Homo sapiens, UniProt Q92769); assay: as above; details: 37° C. 30 minutes;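 also: HDAC2 enzyme with an acetyl-lysine fluorescent substrate, then developer added, fluorescence read at excitation 360 nm and emission 460 nm, inhibition measured across several compound concentrations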
HDAC8 = target: T2, HDAC8 (Homo sapiens, UniProt Q9BY41); assay: as above; details: 37° C. 30 minutes
T2 sequence (Q9BY41 1-377): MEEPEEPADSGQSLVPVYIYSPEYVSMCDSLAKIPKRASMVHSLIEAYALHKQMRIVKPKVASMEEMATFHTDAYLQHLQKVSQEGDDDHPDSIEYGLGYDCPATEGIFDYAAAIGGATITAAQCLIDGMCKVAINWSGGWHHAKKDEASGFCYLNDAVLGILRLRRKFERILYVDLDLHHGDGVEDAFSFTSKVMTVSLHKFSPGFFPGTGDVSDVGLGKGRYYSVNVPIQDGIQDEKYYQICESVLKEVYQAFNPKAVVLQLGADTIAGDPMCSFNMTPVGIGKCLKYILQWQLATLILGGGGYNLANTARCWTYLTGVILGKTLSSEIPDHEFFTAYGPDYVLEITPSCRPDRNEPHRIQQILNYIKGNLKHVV

HDAC11 = target: T3, HDAC11 (Homo sapiens, UniProt Q96DB2); assay: as above;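 also: HDAC11 enzyme acting on an acetyl-lysine fluorogenic substrate, then a developer frees the fluorophore, read at excitation 360 nm and emission 460 nm, IC50 over a compound dilution series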
T3 sequence (Q96DB2 1-347): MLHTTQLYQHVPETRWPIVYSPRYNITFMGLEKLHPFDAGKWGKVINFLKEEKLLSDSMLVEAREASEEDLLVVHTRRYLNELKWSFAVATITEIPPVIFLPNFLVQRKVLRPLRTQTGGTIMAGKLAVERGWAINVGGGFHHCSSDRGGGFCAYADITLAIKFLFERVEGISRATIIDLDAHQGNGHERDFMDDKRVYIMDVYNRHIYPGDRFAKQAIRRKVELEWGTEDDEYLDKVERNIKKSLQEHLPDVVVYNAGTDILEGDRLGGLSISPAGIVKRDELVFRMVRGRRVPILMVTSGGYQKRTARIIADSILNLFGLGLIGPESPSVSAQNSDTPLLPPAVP

[1] = tested on: H1975 (non-small cell lung adenocarcinoma); assay: MTT cancer cell growth inhibition; format: cell-based; details: Homo sapiens, NCI-H1975, 72 h, MTT, 72 hours incubation, H1975 cells; read-out: GI50 H1975
Procedure, shortened: (§1)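 Cells grown in DMEM or RPMI 1640 with 10% FBS were seeded at 1500/well and left overnight at 37° C., 5% CO2. Compounds at final 10^−5 to 10^−10 M were added in triplicate for 72 h. MTT was then added for 4 h, formazan dissolved in DMSO, and absorbance read at 570 nm to derive GI50.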

[2] = tested on: MCF-7 (human breast cancer cells); assay: MTT cancer cell growth inhibition; format: cell-based; details: Homo sapiens, MCF7, 72 h
Procedure, shortened: as §1

[3] = tested on: MOLT-4 (human acute lymphoblastic leukemia cells); assay: MTT cancer cell growth inhibition; format: cell-based; details: Homo sapiens, MOLT-4, 72 h, MTT, 72 hours incubation; read-out: GI50 Mol
Procedure, shortened: as §1

[4] = tested on: KBM5-T315I (human chronic myelogenous leukemia); assay: MTT cancer cell growth inhibition; format: cell-based; details: Homo sapiens, 72 h, MTT, 72 hours incubation, KBM5-T315I cells; read-out: GI50 KBM5-T315I
Procedure, shortened: as §1

[5] = tested on: A549 (human lung cancer cells); assay: MTT cancer cell growth inhibition; format: cell-based; details: Homo sapiens, A549, 72 h, MTT, 72 hours incubation; read-out: GI50 A54
Procedure, shortened: as §1

HDAC3 = HDAC3 (Homo sapiens, UniProt O15379); assay: HDAC biochemical activity measurement (fluorescent substrate deacetylation);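 also: fluorogenic acetyl-lysine substrate (20 µM) deacetylated by HDAC3, then developer added for 15 min at room temperature, release of fluorophore read at excitation 360 nm, emission 460 nm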
[6] = HDAC1, 37° C. 30 minutes, read-out: IC50 HDAC1
[7] = Table 3, read-out: IC50 HDAC1, D (non-substituent)
[8] = read-out: IC50 HDAC11, HDAC11, 37° C. 30 minutes
[9] = 72 hours incubation, read-out: GI50 MCF
[10] = read-out: IC50 HDAC3, HDAC3, 37° C. 30 minutes
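For IC50 HDAC1 in this document: fluorogenic acetyl-lysine substrate (20 µM) deacetylated by HDAC1, then developer releases fluorophore read at 360 nm excitation and 460 nm emission, inhibitor incubated 30 min at 37 °C.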
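For IC50 HDAC1, D (non-substituent) in this document: fluorogenic acetyl-lysine substrate (20 µM) deacetylated by HDAC1, then developer releases fluorophore read at 360 nm excitation and 460 nm emission, inhibitor incubated 30 min at 37 °C.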
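For IC50 HDAC1, a (compounds of the present invention) in this document: fluorogenic acetyl-lysine substrate (20 µM) deacetylated by HDAC1, then developer releases fluorophore read at 360 nm excitation and 460 nm emission, inhibitor incubated 30 min at 37 °C.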

Chain of HDAC1 (Q13547 whole entry, species assumed): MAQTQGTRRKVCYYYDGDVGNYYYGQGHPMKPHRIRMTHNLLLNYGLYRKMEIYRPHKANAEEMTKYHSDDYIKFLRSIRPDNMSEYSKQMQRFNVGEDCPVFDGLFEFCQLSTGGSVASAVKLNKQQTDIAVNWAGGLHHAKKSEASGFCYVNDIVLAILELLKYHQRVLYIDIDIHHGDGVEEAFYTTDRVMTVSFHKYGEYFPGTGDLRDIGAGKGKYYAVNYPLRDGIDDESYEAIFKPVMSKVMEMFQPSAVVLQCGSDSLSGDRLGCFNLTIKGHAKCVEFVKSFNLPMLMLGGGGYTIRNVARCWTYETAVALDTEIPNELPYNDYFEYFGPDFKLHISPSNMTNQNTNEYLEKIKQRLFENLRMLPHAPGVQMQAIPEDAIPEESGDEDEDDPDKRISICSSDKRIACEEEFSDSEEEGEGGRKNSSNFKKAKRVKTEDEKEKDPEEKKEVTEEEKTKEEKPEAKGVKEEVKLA
Chain of HDAC3 (O15379 whole entry, species assumed): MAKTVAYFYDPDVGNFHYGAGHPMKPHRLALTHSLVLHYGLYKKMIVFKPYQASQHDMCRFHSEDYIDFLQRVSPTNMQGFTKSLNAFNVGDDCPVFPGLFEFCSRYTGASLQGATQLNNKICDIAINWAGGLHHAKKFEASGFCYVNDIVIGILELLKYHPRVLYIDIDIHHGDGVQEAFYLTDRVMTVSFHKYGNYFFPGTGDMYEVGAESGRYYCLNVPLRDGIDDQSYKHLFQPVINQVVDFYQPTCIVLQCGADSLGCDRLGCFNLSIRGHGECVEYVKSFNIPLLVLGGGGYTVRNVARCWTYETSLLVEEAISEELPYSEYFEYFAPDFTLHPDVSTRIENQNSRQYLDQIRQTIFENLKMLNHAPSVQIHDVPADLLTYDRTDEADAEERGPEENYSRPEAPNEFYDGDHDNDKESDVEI
Chain of HDAC3 (Q9Y618 395-489 partner limits assumed, species assumed): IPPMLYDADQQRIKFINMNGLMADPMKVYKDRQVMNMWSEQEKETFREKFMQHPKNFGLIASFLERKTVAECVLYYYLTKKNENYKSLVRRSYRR
Chain of HDAC2 (Q92769 whole entry, species assumed): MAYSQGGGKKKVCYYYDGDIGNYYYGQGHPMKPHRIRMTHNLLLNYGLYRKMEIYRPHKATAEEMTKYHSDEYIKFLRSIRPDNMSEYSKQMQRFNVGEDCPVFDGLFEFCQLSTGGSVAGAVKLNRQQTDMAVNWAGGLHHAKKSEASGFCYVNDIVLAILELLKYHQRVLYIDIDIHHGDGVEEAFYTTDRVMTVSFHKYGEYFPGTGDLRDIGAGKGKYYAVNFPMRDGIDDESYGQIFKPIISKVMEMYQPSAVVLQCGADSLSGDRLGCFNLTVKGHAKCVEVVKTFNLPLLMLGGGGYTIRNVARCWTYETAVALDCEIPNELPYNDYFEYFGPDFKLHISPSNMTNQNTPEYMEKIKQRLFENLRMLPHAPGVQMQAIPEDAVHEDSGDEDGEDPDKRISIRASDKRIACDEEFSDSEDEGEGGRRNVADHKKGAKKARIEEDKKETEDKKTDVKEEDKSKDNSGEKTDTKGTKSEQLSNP

C/C=C1\NC(=O)c2cccc(n2)CNC(=O)C[C@@H](/C=C/CCSC(C)=O)OC(=O)[C@H](CCCCNC(=O)OCC2c3ccccc3-c3ccccc32)NC1=O [Compound 16]
IC50 HDAC7 (HDAC7): no activity
IC50 (HDAC1; [6]): 181 nM
IC50 (HDAC1; [7]): 181 nM
IC50 (HDAC2): 56 nM
IC50 (HDAC8): 61 nM
IC50 (HDAC11; [8]): 95 nM
GI50 [1]: 39 nM
GI50 [2, 9]: 49500 nM
GI50 [3]: 700 nM
GI50 [4]: 19 nM
GI50 [5]: 4200 nM
IC50 (HDAC3; [10]): 49 nM

C/C=C1\NC(=O)c2cccc(n2)CNC(=O)C[C@@H](/C=C/CCSC(C)=O)OC(=O)[C@H](C)NC1=O [Compound 12]
IC50 HDAC7 (HDAC7): no activity
IC50 (HDAC1; [6]): 81 nM
IC50 (HDAC1; [7]): 81 nM
IC50 (HDAC2): 54 nM
IC50 (HDAC8): 38 nM
IC50 (HDAC11; [8]): 91 nM
GI50 [1]: 41 nM
GI50 [2, 9]: 60 nM
GI50 [4]: 31 nM
GI50 [5]: 70 nM
IC50 (HDAC3; [10]): 52 nM

C/C=C1\NC(=O)c2cccc(n2)CNC(=O)C[C@@H](/C=C/CCSC(C)=O)OC(=O)[C@H](CC)NC1=O [Compound 10]
IC50 HDAC7 (HDAC7): no activity
IC50 (HDAC1; [6]): 92 nM
IC50 (HDAC1; [7]): 92 nM
IC50 (HDAC2): 67 nM
IC50 (HDAC8): 50 nM
IC50 (HDAC11): 103 nM
GI50 [1]: 24 nM
GI50 [2, 9]: 60 nM
GI50 [4]: 24 nM
GI50 [5]: 60 nM
IC50 (HDAC3): 41 nM

C/C=C1\NC(=O)c2ccc(F)c(n2)CNC(=O)C[C@@H](/C=C/CCSC(=O)CC)OC(=O)[C@H](C(C)C)NC1=O [Example 47]
IC50 HDAC7 (HDAC7): no activity
IC50 (HDAC1; [6]): 71 nM
IC50 (HDAC2): 26 nM
IC50 (HDAC11): 83 nM
GI50 [1]: 29 nM
GI50 [2, 9]: 50 nM
GI50 [3]: 20 nM
GI50 [4]: 56 nM
GI50 [5]: 40 nM
IC50 (HDAC3): 39 nM

C/C=C1\NC(=O)c2cccc(n2)CNC(=O)C[C@@H](/C=C/CCSC=O)OC(=O)[C@H](C(C)C)NC1=O [Compound 8]
IC50 HDAC7 (HDAC7): no activity
IC50 (HDAC1; [6]): 153 nM
IC50 (HDAC1; [7]): 153 nM
IC50 (HDAC2): 162 nM
IC50 (HDAC8): 41 nM
IC50 (HDAC11): 97 nM
GI50 [1]: 38 nM
GI50 [2, 9]: 80 nM
GI50 [4]: 63 nM
GI50 [5]: 80 nM
IC50 (HDAC3): 51 nM

C/C=C1\NC(=O)c2cccc(n2)CNC(=O)C[C@@H](/C=C/CCSC(=O)CCC)OC(=O)[C@H](C(C)C)NC1=O [Compound 5]
IC50 HDAC7 (HDAC7): no activity
IC50 (HDAC1; [6]): 74 nM
IC50 (HDAC1; [7]): 74 nM
IC50 (HDAC2): 53 nM
IC50 (HDAC8): 67 nM
IC50 (HDAC11; [8]): 111 nM
GI50 [1]: 23 nM
GI50 [2, 9]: 40 nM
GI50 [4]: 33 nM
GI50 [5]: 50 nM
IC50 (HDAC3; [10]): 49 nM

C/C=C1\NC(=O)c2cccc(n2)CNC(=O)C[C@@H](/C=C/CCSC(=O)CC)OC(=O)[C@H](C(C)C)NC1=O [Compound 6]
IC50 HDAC7 (HDAC7): no activity
IC50 (HDAC1; [6]): 75 nM
IC50 (HDAC1; [7]): 75 nM
IC50 (HDAC2): 59 nM
IC50 (HDAC8): 63 nM
IC50 (HDAC11; [8]): 135 nM
GI50 [1]: 13 nM
GI50 [2, 9]: 60 nM
GI50 [4]: 41 nM
GI50 [5]: 60 nM
IC50 (HDAC3; [10]): 61 nM

C/C=C1\NC(=O)c2cccc(n2)CNC(=O)C[C@@H](/C=C/CCSC(=O)CCCCCCC)OC(=O)[C@H](C(C)C)NC1=O [Compound 1]
IC50 HDAC7 (HDAC7): no activity
IC50 (HDAC1; [6]): 41 nM
IC50 (HDAC1; Table 2, read-out: IC50 HDAC1, a (compounds of the present invention)): < 50 nM
IC50 (HDAC1; [7]): 41 nM
IC50 (HDAC2): 22 nM
IC50 (HDAC8): 30 nM
IC50 (HDAC11; [8]): 380 nM
GI50 [1]: 122 nM
GI50 [2, 9]: 30 nM
GI50 ([2]; 72 hours, present invention, read-out: GI50 MCF7, a): 30 nM
GI50 [4]: 46 nM
GI50 [5]: 10 nM
IC50 (HDAC3; [10]): 35 nM

C/C=C1\NC(=O)c2cccc(n2)CNC(=O)C[C@@H](/C=C/CCSC(=O)CCCC)OC(=O)[C@H](C(C)C)NC1=O [Compound 4]
IC50 HDAC7 (HDAC7): no activity
IC50 (HDAC1; [6]): 183 nM
IC50 (HDAC1; [7]): 183 nM
IC50 (HDAC2): 251 nM
IC50 (HDAC8): 161 nM
IC50 (HDAC11; [8]): 201 nM
GI50 [1]: 31 nM
GI50 [2, 9]: 40 nM
GI50 [4]: 22 nM
GI50 [5]: 50 nM
IC50 (HDAC3; [10]): 152 nM
